Measured values published in ChEMBL document CHEMBL2034954, “Synthesis and antimycobacterial activity of novel 1,3-dimethylisocyanurate derivatives” (Eur J Med Chem, 2012).
The source made the active and inactive calls. The rule behind the calls is not given here.

Assays:
[1] = system: Mycobacterium tuberculosis; assay: Antitubercular activity against multidrug-resistant Mycobacterium tuberculosis clinical isolate at 10 ug/mL by radiometric growth assay; format: functional, organism-based
[2] = system: Mycobacterium tuberculosis; assay: Antitubercular activity against multidrug-resistant Mycobacterium tuberculosis clinical isolate assessed as number of colonies at 1 ug/mL by radiometric growth assay; format: functional
[3] = system: Mycobacterium tuberculosis; assay: Antitubercular activity against multidrug-resistant Mycobacterium tuberculosis clinical isolate assessed as number of colonies at 10 ug/mL by radiometric growth assay; format: functional
[4] = system: Mycobacterium tuberculosis; assay: Antitubercular activity against multidrug-resistant Mycobacterium tuberculosis clinical isolate at 1 ug/mL by radiometric growth assay; format: functional, organism-based
[5] = system: Mycobacterium tuberculosis; assay: Antitubercular activity against multidrug-resistant Mycobacterium tuberculosis clinical isolate at 80 ug/mL by radiometric growth assay; format: functional, organism-based
[6] = system: Mycobacterium tuberculosis; assay: Antitubercular activity against multidrug-resistant Mycobacterium tuberculosis clinical isolate at 40 ug/mL by radiometric growth assay; format: functional, organism-based

**Q.** How did the Activity [1] turn out when `CC1COc2c(N3CCN(C)CC3)c(F)cc3c(=O)c(C(=O)O)cn1c23` (configuration not stated) was run?
**A.** inactive

**Q.** For `Cn1c(=O)n(C)c(=O)n(CCCCC[S+]([O-])CC(=O)NN)c1=O` (configuration not stated), which CFU [2] is on record?
**A.** 15

**Q.** And the CFU [3]?
**A.** 10

**Q.** With `NNC(=O)c1ccncc1` [ISONIAZID] as the compound, how does the Activity [4] read?
**A.** inactive

**Q.** And the Activity [1]?
**A.** inactive

**Q.** For `CO[C@H]1/C=C/O[C@@]2(C)Oc3c(C)c(O)c4c(O)c(c(/C=N/N5CCN(C)CC5)c(O)c4c3C2=O)NC(=O)/C(C)=C\C=C\[C@H](C)[C@H](O)[C@@H](C)[C@@H](O)[C@@H](C)[C@H](OC(C)=O)[C@@H]1C`, which Activity [5] is on record?
**A.** inactive

**Q.** And the Activity [6]?
**A.** inactive
